Biological target: T1, HPK1 (Homo sapiens, UniProt Q92918)
T1 construct: A HiBiT tag was introduced by CRISPR on the N terminus of HPK1 in Jurkat cells; host or cells: Jurkat cells (ATCC TIB-152), monoclonal line with CRISPR knock-in of HiBiT at the endogenous HPK1 locus
Assay: HPK1 Cellular HiBit Degradation Assay
Format: cell-based
Conditions: HiBiT HPK1 Jurkat cells, 24 hrs; for DC50: concentration at which 50% of HPK1 was remaining, read-out: DC50 Category; for Dmax: Jurkat, maximum degradation vs DMSO vehicle control, read-out: Dmax Category
Method in brief: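 Degraders are dosed in an 11-point series (10 uM to 0.1 nM final) onto Jurkat cells carrying an N-terminal HiBiT tag on endogenous HPK1. After 24 hrs at 37° C, lysis-based HiBiT luminescence quantifies remaining HPK1 relative to vehicle, and curve fitting gives DC50 and Dmax.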

T1 sequence (Q92918 whole entry): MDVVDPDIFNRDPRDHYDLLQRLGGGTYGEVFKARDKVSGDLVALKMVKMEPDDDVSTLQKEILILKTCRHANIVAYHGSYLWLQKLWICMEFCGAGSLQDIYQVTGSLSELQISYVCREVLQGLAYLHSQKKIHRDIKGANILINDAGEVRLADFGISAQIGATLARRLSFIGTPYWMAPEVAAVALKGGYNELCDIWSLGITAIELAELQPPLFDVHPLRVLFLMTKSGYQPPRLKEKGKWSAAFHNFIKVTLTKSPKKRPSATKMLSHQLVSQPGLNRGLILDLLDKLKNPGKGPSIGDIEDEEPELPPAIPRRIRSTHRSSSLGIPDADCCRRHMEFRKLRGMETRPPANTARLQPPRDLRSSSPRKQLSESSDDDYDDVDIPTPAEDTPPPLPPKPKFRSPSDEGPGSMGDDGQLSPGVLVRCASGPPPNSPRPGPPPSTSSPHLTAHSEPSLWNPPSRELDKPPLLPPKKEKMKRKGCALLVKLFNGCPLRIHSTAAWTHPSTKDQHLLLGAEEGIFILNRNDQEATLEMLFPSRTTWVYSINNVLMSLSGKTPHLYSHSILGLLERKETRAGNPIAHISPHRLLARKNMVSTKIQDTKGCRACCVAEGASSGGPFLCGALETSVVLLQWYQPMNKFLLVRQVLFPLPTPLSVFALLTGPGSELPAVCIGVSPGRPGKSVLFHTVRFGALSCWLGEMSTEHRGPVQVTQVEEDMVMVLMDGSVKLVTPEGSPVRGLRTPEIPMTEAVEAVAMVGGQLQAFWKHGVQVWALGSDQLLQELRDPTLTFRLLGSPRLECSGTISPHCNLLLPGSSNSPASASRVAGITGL

Compound	DC50 [µM]	Dmax [%]
CC(C)n1cnc2cc(-c3ccc4c(c3)N([C@H]3C[C@@H](N5CCCCC5)C3)C(=O)C43CCN(C(=O)C4CCN(C(=O)[C@H]5CC[C@H](N(C)c6ccc(C7CCC(=O)NC7=O)cn6)CC5)CC4)CC3)nc(Nc3ccccc3F)c21 (mixture of isomers) [Example 131, (3RS)-3-(6-{methyl[(1R,4R)-4-{4-[(6-{4-[(2-fluorophenyl)amino]-3-(propan-2-yl)-3H-imidazo[4,5-c]pyridin-6-yl}-2-oxo-1-[(1S,3S)-3-(piperidin-1-yl)cyclobutyl]-1,2-dihydrospiro[indole-3,4′-piperidin]-1′-yl)carbonyl]piperidine-1-carbonyl}cyclohexyl]amino}pyridin-3-yl)piperidine-2,6-dione]	< 0.1	70 to 85
CC(C)n1cnc2cc(-c3ccc4c(c3)N([C@H]3C[C@@H](N5CCCCC5)C3)C(=O)C43CCN(C(=O)C4CCN(C(=O)[C@H]5CC[C@H](N(C)c6ccc(C7CCC(=O)NC7=O)cn6)CC5)CC4)CC3)nc(Nc3ccncc3F)c21 (mixture of isomers) [Example 132, (3RS)-3-(6-{methyl[(1R,4R)-4-{4-[(6-{4-[(3-Fluoropyridin-4-yl)amino]-3-(propan-2-yl)-3H-imidazo[4,5-c]pyridin-6-yl}-2-oxo-1-[(1S,3S)-3-(piperidin-1-yl)cyclobutyl]-1,2-dihydrospiro[indole-3,4′-piperidin]-1′-yl)carbonyl]piperidine-1-carbonyl}cyclohexyl]amino}pyridin-3-yl)piperidine-2,6-dione]	< 0.1	50 to 70
CC(C)n1cnc2cc(-c3ccc4c(c3)N([C@H]3C[C@@H](N5CCCCC5)C3)C(=O)C43CCN(C(=O)C4CCN(C(=O)[C@H]5CC[C@H](N(C)c6cccc7c6C(=O)N(C6CCC(=O)NC6=O)C7=O)CC5)CC4)CC3)nc(NC3CC3)c21 (mixture of isomers) [Example 133, 2-[(3RS)-2,6-dioxopiperidin-3-yl]-4-{methyl[(1R,4R)-4-[4-({6-[4-(cyclopropylamino)-3-(propan-2-yl)-3H-imidazo[4,5-c]pyridin-6-yl]-2-oxo-1-[(1S,3S)-3-(piperidin-1-yl)cyclobutyl]-1,2-dihydrospiro[indole-3,4′-piperidin]-1′-yl}carbonyl)piperidine-1-carbonyl]cyclohexyl]amino}-2,3-dihydro-1H-isoindole-1,3-dione]	0.5 to 1	50 to 70
CC(C)n1cnc2cc(-c3ccc4c(c3)N([C@H]3C[C@@H](N5CCCCC5)C3)C(=O)C43CCN(C(=O)[C@H]4CC[C@H](C(=O)N5CCC(N(C)c6ccc(C7CCC(=O)NC7=O)cc6)CC5)CC4)CC3)nc(NC3CC3)c21 (mixture of isomers) [Example 134, (3RS)-3-{4-[methyl({1-[(1R,4R)-4-({6-[4-(cyclopropylamino)-3-(propan-2-yl)-3H-imidazo[4,5-c]pyridin-6-yl]-2-oxo-1-[(1S,3S)-3-(piperidin-1-yl)cyclobutyl]-1,2-dihydrospiro[indole-3,4′-piperidin]-1′-yl}carbonyl)cyclohexanecarbonyl]piperidin-4-yl})amino]phenyl}piperidine-2,6-dione]	0.1 to 0.5	50 to 70
CC(C)n1cnc2cc(-c3ccc4c(c3)N([C@H]3C[C@@H](N5CCCCC5)C3)C(=O)C43CCN(C(=O)[C@H]4CC[C@H](C(=O)N5CCC(N(C)c6ccc(C7CCC(=O)NC7=O)cc6)CC5)CC4)CC3)nc(Nc3ccccc3F)c21 (mixture of isomers) [Example 135, (3RS)-3-{4-[methyl({1-[(1R,4R)-4-[(6-{4-[(2-fluorophenyl)amino]-3-(propan-2-yl)-3H-imidazo[4,5-c]pyridin-6-yl}-2-oxo-1-[(1S,3S)-3-(piperidin-1-yl)cyclobutyl]-1,2-dihydrospiro[indole-3,4′-piperidin]-1′-yl)carbonyl]cyclohexanecarbonyl]piperidin-4-yl})amino]phenyl}piperidine-2,6-dione]	< 0.1	70 to 85
CC(C)n1cnc2cc(-c3ccc4c(c3)N([C@H]3C[C@@H](N5CCCCC5)C3)C(=O)C43CCN(C(=O)[C@H]4CC[C@H](C(=O)N5CCC(N(C)c6ccc(C7CCC(=O)NC7=O)cc6)CC5)CC4)CC3)nc(Nc3ccncc3F)c21 (mixture of isomers) [Example 136, (3RS)-3-{4-[methyl({1-[(1R,4R)-4-[(6-{4-[(3-fluoropyridin-4-yl)amino]-3-(propan-2-yl)-3H-imidazo[4,5-c]pyridin-6-yl}-2-oxo-1-[(1S,3S)-3-(piperidin-1-yl)cyclobutyl]-1,2-dihydrospiro[indole-3,4′-piperidin]-11′-yl)carbonyl]cyclohexanecarbonyl]piperidin-4-yl})amino]phenyl}piperidine-2,6-dione]	< 0.1	70 to 85
CC(C)n1cnc2cc(-c3ccc4c(c3)N([C@H]3C[C@@H](N5CCCCC5)C3)C(=O)C43CCN(C(=O)[C@H]4CC[C@H](C(=O)N5CCC(N(C)c6ccc(C7CCC(=O)NC7=O)cn6)CC5)CC4)CC3)nc(NC3CC3)c21 (mixture of isomers) [Example 137, (3RS)-3-{6-[methyl({1-[(1R,4R)-4-({6-[4-(cyclopropylamino)-3-(propan-2-yl)-3H-imidazo[4,5-c]pyridin-6-yl]-2-oxo-1-[(1S,3S)-3-(piperidin-1-yl)cyclobutyl]-1,2-dihydrospiro[indole-3,4′-piperidin]-1′-yl}carbonyl)cyclohexanecarbonyl]piperidin-4-yl})amino]pyridin-3-yl}piperidine-2,6-dione]	< 0.1	70 to 85
CC(C)n1cnc2cc(-c3ccc4c(c3)N([C@H]3C[C@@H](N5CCCCC5)C3)C(=O)C43CCN(C(=O)[C@H]4CC[C@H](C(=O)N5CCC(N(C)c6ccc(C7CCC(=O)NC7=O)cn6)CC5)CC4)CC3)nc(Nc3ccccc3F)c21 (mixture of isomers) [Example 138, (3RS)-3-{6-[methyl({1-[(1R,4R)-4-[(6-{4-[(2-fluorophenyl)amino]-3-(propan-2-yl)-3H-imidazo[4,5-c]pyridin-6-yl}-2-oxo-1-[(1S,3S)-3-(piperidin-1-yl)cyclobutyl]-1,2-dihydrospiro[indole-3,4′-piperidin]-1′-yl)carbonyl]cyclohexanecarbonyl]piperidin-4-yl})amino]pyridin-3-yl}piperidine-2,6-dione]	< 0.1	> 85
CC(C)n1cnc2cc(-c3ccc4c(c3)N([C@H]3C[C@@H](N5CCCCC5)C3)C(=O)C43CCN(C(=O)[C@H]4CC[C@H](C(=O)N5CCC(N(C)c6ccc(C7CCC(=O)NC7=O)cn6)CC5)CC4)CC3)nc(Nc3ccncc3F)c21 (mixture of isomers) [Example 139, (3RS)-3-{6-[methyl({1-[(1R,4R)-4-[(6-{4-[(3-Fluoropyridin-4-yl)amino]-3-(propan-2-yl)-3H-imidazo[4,5-c]pyridin-6-yl}-2-oxo-1-[(1S,3S)-3-(piperidin-1-yl)cyclobutyl]-1,2-dihydrospiro[indole-3,4′-piperidin]-1′-yl)carbonyl]cyclohexanecarbonyl]piperidin-4-yl})amino]pyridin-3-yl}piperidine-2,6-dione]	< 0.1	70 to 85
CC(C)n1cnc2cc(-c3ccc4c(c3)N([C@H]3C[C@@H](N5CCCCC5)C3)C(=O)C43CCN(C(=O)c4ccc(C(=O)N5CCC(N(C)c6ccc(C7CCC(=O)NC7=O)cn6)CC5)cc4)CC3)nc(Nc3ccccc3F)c21 (mixture of isomers) [Example 140, (3RS)-3-{6-[(1-{4-[(6-{4-[(2-fluorophenyl)amino]-3-(propan-2-yl)-3H-imidazo[4,5-c]pyridin-6-yl}-2-oxo-1-[(1S,3S)-3-(piperidin-1-yl)cyclobutyl]-1,2-dihydrospiro[indole-3,4′-piperidin]-1′-yl)carbonyl]benzoyl}piperidin-4-yl)(methyl)amino]pyridin-3-yl}piperidine-2,6-dione]	0.5 to 1	50 to 70
CC(C)n1cnc2cc(-c3ccc4c(c3)N([C@H]3C[C@@H](N5CCCCC5)C3)C(=O)C43CCN(C(=O)c4ccc(C(=O)N(C)C5CCN(c6ccc(C7CCC(=O)NC7=O)cn6)CC5)cc4)CC3)nc(Nc3ccccc3F)c21 (mixture of isomers) [Example 141, N-(1-{5-[(3RS)-2,6-dioxopiperidin-3-yl]pyridin-2-yl}piperidin-4-yl)-4-[(6-{4-[(2-Fluorophenyl)amino]-3-(propan-2-yl)-3H-imidazo[4,5-c]pyridin-6-yl}-2-oxo-1-[(1S,3S)-3-(piperidin-1-yl)cyclobutyl]-1,2-dihydrospiro[indole-3,4′-piperidin]-1′-yl)carbonyl]-N-methylbenzamide]	0.5 to 1	50 to 70
Cc1cc(F)c(Nc2nc(-c3ccc4c(c3)N([C@H]3C[C@@H](N5CCCCC5)C3)C(=O)C43CCN(C(=O)C4CCN(CC5CCN(c6cccc7c6n(C)c(=O)n7C6CCC(=O)NC6=O)CC5)CC4)CC3)cc3ncn(C(C)C)c23)cc1C(=O)NC(C)C (mixture of isomers) [Example 142, 5-{[6-(1′-{1-[(1-{1-[(3RS)-2,6-dioxopiperidin-3-yl]-3-methyl-2-oxo-2,3-dihydro-1H-1,3-benzodiazol-4-yl}piperidin-4-yl)methyl]piperidine-4-carbonyl}-2-oxo-1-[(1S,3S)-3-(piperidin-1-yl)cyclobutyl]-1,2-dihydrospiro[indole-3,4′-piperidin]-6-yl)-3-(propan-2-yl)-3H-imidazo[4,5-c]pyridin-4-yl]amino}-4-fluoro-2-methyl-N-(propan-2-yl)benzamide]	0.5 to 1	70 to 85

Reference: patent publication US12091426B2, “Bifunctional degraders of hematopoietic progenitor kinase and therapeutic uses thereof” (Nurix Therapeutics, Inc., priority 2021, dated 2024)
